This note sets out measurements from patent US20120046306A1, “Substituted Heteroaryl Spiropyrrolidine MDM2 Antagonists” (priority 2010, published 2012).

For the assay, the target named is interaction between p53 and MDM2 proteins (Homo sapiens, UniProt Q00987). The assay can be described thus: HTRF assay of inhibition of p53-MDM2 interaction. The assay is classed as binding. The note with it: GST-MDM2 and biotinylated p53 peptide, bsa: 0.02%. Here is the method: The ability of the compounds to inhibit the interaction between p53 and MDM2 proteins was measured by an HTRF (homogeneous time-resolved fluorescence) assay in which recombinant GST-tagged MDM2 binds to a peptide that resembles the MDM2-interacting region of p53. Binding of GST-MDM2 protein and p53-peptide (biotinylated on its N-terminal end) is registered by the FRET (fluorescence resonance energy transfer) between Europium (Eu)-labeled anti-GST antibody and streptavidin-conjugated Allophycocyanin (APC).
Chain of interaction between p53 and MDM2 proteins (Q00987 whole entry): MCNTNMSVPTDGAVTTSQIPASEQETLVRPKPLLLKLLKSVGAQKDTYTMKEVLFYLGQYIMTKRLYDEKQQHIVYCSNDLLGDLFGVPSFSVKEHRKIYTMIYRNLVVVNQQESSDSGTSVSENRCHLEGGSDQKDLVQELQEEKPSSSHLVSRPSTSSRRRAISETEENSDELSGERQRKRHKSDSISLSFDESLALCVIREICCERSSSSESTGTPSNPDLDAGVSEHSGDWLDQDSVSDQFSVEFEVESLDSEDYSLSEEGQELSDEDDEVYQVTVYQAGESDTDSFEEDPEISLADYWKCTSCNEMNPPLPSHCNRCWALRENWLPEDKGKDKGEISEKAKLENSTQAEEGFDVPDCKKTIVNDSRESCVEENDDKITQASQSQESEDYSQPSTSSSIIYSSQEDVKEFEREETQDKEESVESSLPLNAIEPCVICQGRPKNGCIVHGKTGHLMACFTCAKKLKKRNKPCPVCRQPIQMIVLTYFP
Add 20 uL streptavidin-APC and Eu-anti-GST antibody mixture (6 nM Eu-anti-GST and 60 nM streptavidin-APC working solution) in TBS buffer with 0.2% BSA, shake at room temperature for 30 minutes and read using a TRF-capable plate reader at
If not specified, the reagents were purchased from Sigma Chemical Co.
By IC50 is commonly meant the concentration at which inhibition is half-maximal. A higher IC50 goes with weaker potency. Turning to `COC(=O)c1ccc(NC(=O)[C@@H]2N[C@@H](CC(C)(C)C)[C@@]3(C(=O)Nc4ccncc43)[C@H]2c2cccc(Cl)c2F)c(OC)c1` (racemic) [Example 6, methyl rac-4-((2S,3R,4S,5R)-4-(3-chloro-2-fluorophenyl)-2-neopentyl-2′-oxo-1′,2′-dihydrospiro[pyrrolidine-3,3′-pyrrolo[3,2-c]pyridine]-5-ylcarboxamido)-3-methoxybenzoate], the concentration for half-maximal inhibition (IC50) turned out to be 32.4 nM.

Consider `COC(=O)c1ccc(NC(=O)[C@@H]2N[C@@H](CC(C)(C)C)[C@@]3(C(=O)Nc4ncccc43)[C@H]2c2cccc(Cl)c2F)c(OC)c1` (racemic) [Example 13, methyl rac-4-((2S,3R,4S,5R)-4-(3-chloro-2-fluorophenyl)-2-neopentyl-2′-oxo-1′,2′-dihydrospiro[pyrrolidine-3,3′-pyrrolo[2,3-b]pyridine]-5-ylcarboxamido)-3-methoxybenzoate], for which the IC50 was determined as 30.3 nM.

`CC(C)(C)C[C@@H]1N[C@@H](C(=O)Nc2ccc(C(=O)O)cc2)[C@H](c2cccc(Cl)c2F)[C@]12C(=O)Nc1cc(Cl)ncc12` (racemic) [Example 28, rac-4-((2S,3R,4S,5R)-6′-chloro-4-(3-chloro-2-fluorophenyl)-2-neopentyl-2′-oxo-1′,2′-dihydrospiro[pyrrolidine-3,3′-pyrrolo[3,2-c]pyridine]-5-ylcarboxamido)benzoic acid] showed an IC50 of 10.5 nM.

The compound `COC(=O)c1ccc(NC(=O)[C@@H]2N[C@@H](CC(C)(C)C)[C@@]3(C(=O)Nc4nc(Cl)ccc43)[C@H]2c2cccc(Cl)c2F)c(OC)c1` (racemic) [Example 35, methyl rac-4-((2S,3R,4S,5R)-6′-chloro-4-(3-chloro-2-fluorophenyl)-2-neopentyl-2′-oxo-1′,2′-dihydrospiro[pyrrolidine-3,3′-pyrrolo[2,3-b]pyridine]-5-ylcarboxamido)-3-methoxybenzoate] gave a half-inhibitory concentration (IC50) of 14.5 nM.

`COc1cc(C(=O)O)ccc1NC(=O)[C@@H]1N[C@@H](CC(C)(C)C)[C@@]2(C(=O)Nc3ccc(Cl)nc32)[C@H]1c1cccc(Cl)c1F` (racemic) [Example 47, rac-4-((2S,3S,4S,5R)-5′-chloro-4-(3-chloro-2-fluorophenyl)-2-neopentyl-2′-oxo-1′,2′-dihydrospiro[pyrrolidine-3,3′-pyrrolo[3,2-b]pyridine]-5-ylcarboxamido)-3-methoxybenzoic acid]: the concentration for half-maximal inhibition (IC50) amounted to 34.5 nM.

In the case of `COc1cc(C(N)=O)ccc1NC(=O)[C@@H]1N[C@@H](CC(C)(C)C)[C@@]2(C(=O)Nc3cc(Cl)cnc32)[C@H]1c1cccc(Cl)c1` (racemic) [Example 63, rac-(2S,3S,4R,5R)-N-(4-carbamoyl-2-methoxyphenyl)-6′-chloro-4-(3-chlorophenyl)-2-neopentyl-2′-oxo-1′,2′-dihydrospiro[pyrrolidine-3,3′-pyrrolo[3,2-b]pyridine]-5-carboxamide], the IC50 came to 14.6 nM.

`COC(=O)c1ccc(NC(=O)[C@@H]2N[C@@H](CC(C)(C)C)[C@@]3(C(=O)Nc4cc(Cl)cnc43)[C@H]2c2cccc(Br)c2F)c(OC)c1` (racemic) [Example 66, methyl rac-4-{(2S,3R,4S,5R)-4-(3-bromo-2-fluorophenyl)-6′-chloro-2-neopentyl-2′-oxo-1′,2′-dihydrospiro[pyrrolidine-3,3′-pyrrolo[3,2-b]pyridine]-5-ylcarboxamido}-3-methoxybenzoate] returned a half-maximal inhibitory concentration (IC50) of 1830 nM.

`COc1cc(C(N)=O)ccc1NC(=O)[C@@H]1N[C@@H](CC(C)(C)C)[C@@]2(C(=O)Nc3cc(Cl)cnc32)[C@H]1c1cccc(Br)c1F` (racemic) [Example 69, rac-(2S,3S,4S,5R)-4-(3-bromo-2-fluorophenyl)-N-(4-carbamoyl-2-methoxyphenyl)-6′-chloro-2-neopentyl-2′-oxo-1′,2′-dihydrospiro[pyrrolidine-3,3′-pyrrolo[3,2b]pyridine]-5-carboxamide] displayed a 50% inhibitory concentration (IC50) of 12.9 nM.

Consider `COC(=O)c1ccc(NC(=O)[C@@H]2N[C@@H](CC(C)(C)C)[C@@]3(C(=O)Nc4cc(F)cnc43)[C@H]2c2cccc(Cl)c2F)c(OC)c1` (racemic) [Example 83, methyl rac-4-((2S,3S,4S,5R)-4-(3-chloro-2-fluorophenyl)-6′-fluoro-2-neopentyl-2′-oxo-1′,2′-dihydrospiro[pyrrolidine-3,3′-pyrrolo[3,2-b]pyridine]-5-ylcarboxamido)-3-methoxybenzoate], for which the 50% inhibitory concentration (IC50) was 19.5 nM.

`COc1cc(C(N)=O)ccc1NC(=O)[C@@H]1N[C@@H](CC(C)(C)C)[C@@]2(C(=O)Nc3cc(F)cnc32)[C@H]1c1cccc(Cl)c1F` (racemic) [Example 86, rac-(2S,3S,4S,5R)-N-(4-carbamoyl-2-methoxyphenyl)-4-(3-chloro-2-fluorophenyl)-6′-fluoro-2-neopentyl-2′-oxo-1′,2′-dihydrospiro[pyrrolidine-3,3′-pyrrolo[3,2b]pyridine]-5-carboxamide] gave a half-maximal inhibitory concentration (IC50) of 18.7 nM.

Take `COc1cc(OCCO)ccc1NC(=O)[C@@H]1N[C@@H](CC(C)(C)C)[C@@]2(C(=O)Nc3nc(Cl)ncc32)[C@H]1c1cccc(Cl)c1F` (racemic) [Example 89, rac-(2S,3R,4S,5R)-2′-chloro-4-(3-chloro-2-fluorophenyl)-N-[4-(2-hydroxyethoxy)-2-methoxyphenyl]-2-neopentyl-6′-oxo-6′,7′-dihydrospiro[pyrrolidine-3,5′-pyrrolo[2,3-d]pyrimidine]-5-carboxamide]: the midpoint of inhibition, the IC50, lay at 11.7 nM.

Regarding `COC(=O)c1ccc(NC(=O)[C@@H]2N[C@@H](CC(C)(C)C)[C@]3(C(=O)Nc4nc(Cl)ncc43)[C@H]2c2cccc(Cl)c2F)c(OC)c1` (racemic) [Example 91, methyl rac-4-{(2S,3S,4S,5R)-2′-chloro-4-(3-chloro-2-fluorophenyl)-2-neopentyl-6′-oxo-6′,7′-dihydrospiro[pyrrolidine-3,5′-pyrrolo[2,3-d]pyrimidine]-5-ylcarboxamido}-3-methoxybenzoate], the IC50 was found to be 10.7 nM.

The compound `COC(=O)c1ccc(NC(=O)[C@@H]2N[C@@H](CC(C)(C)C)[C@@]3(C(=O)Nc4cc(Cl)sc43)[C@H]2c2cccc(Cl)c2F)c(OC)c1` (racemic) [Example 96, methyl rac-4-((2S,3R,4R,5R)-2′-chloro-4-(3-chloro-2-fluorophenyl)-2-neopentyl-5′-oxo-4′,5′-dihydrospiro[pyrrolidine-3,6′-thieno[3,2-b]pyrrole]-5-ylcarboxamido)-3-methoxybenzoate] had a concentration for half-maximal inhibition (IC50) of 22.7 nM.

`COC(=O)c1ccc(NC(=O)[C@@H]2N[C@@H](CC(C)(C)C)[C@@]3(C(=O)Nc4cc(OC)ncc43)[C@H]2c2cccc(Cl)c2F)c(OC)c1` (racemic) [Example 110, methyl rac-4-((2S,3R,4S,5R)-4-(3-chloro-2-fluorophenyl)-6′-methoxy-2-neopentyl-2′-oxo-1′,2′-dihydrospiro[pyrrolidine-3,3′-pyrrolo[3,2-c]pyridine]-5-ylcarboxamido)-3-methoxybenzoate] registered a half-inhibitory concentration (IC50) of 13.6 nM.

Regarding `COc1cc2c(cn1)[C@@]1(C(=O)N2)[C@H](CC(C)(C)C)N[C@@H](C(=O)Nc2ccc(C(=O)O)cc2OC)[C@@H]1c1cccc(Cl)c1F` (racemic) [Example 111, rac-4-((2S,3R,4S,5R)-4-(3-chloro-2-fluorophenyl)-6′-methoxy-2-neopentyl-2′-oxo-1′,2′-dihydrospiro[pyrrolidine-3,3′-pyrrolo[3,2-c]pyridine]-5-ylcarboxamido)-3-methoxybenzoic acid], the concentration for half-maximal inhibition (IC50) was 7 nM.

In the case of `COC(=O)c1ccc(NC(=O)[C@@H]2N[C@@H](CC(C)(C)C)[C@@]3(C(=O)Nc4cc(O)ncc43)[C@H]2c2cccc(Cl)c2F)c(OC)c1` (racemic) [Example 113, methyl rac-4-((2S,3R,4S,5R)-4-(3-chloro-2-fluorophenyl)-6′-hydroxy-2-neopentyl-2′-oxo-1′,2′-dihydrospiro[pyrrolidine-3,3′-pyrrolo[3,2-c]pyridine]-5-ylcarboxamido)-3-methoxybenzoate], the IC50 is over 10000 nM.

For `COc1cc(C(=O)O)ccc1NC(=O)[C@@H]1N[C@@H](CC(C)(C)C)[C@@]2(C(=O)Nc3cc(O)ncc32)[C@H]1c1cccc(Cl)c1F` (racemic) [Example 114, rac-4-((2S,3R,4S,5R)-4-(3-chloro-2-fluorophenyl)-6′-hydroxy-2-neopentyl-2′-oxo-1′,2′-dihydrospiro[pyrrolidine-3,3′-pyrrolo[3,2-c]pyridine]-5-ylcarboxamido)-3-methoxybenzoic acid], the IC50 is over 10000 nM.

Compound `COc1cc2c(cn1)[C@@]1(C(=O)N2)[C@H](CC(C)(C)C)N[C@@H](C(=O)Nc2ccc(C(N)=O)cc2OC)[C@@H]1c1cccc(Cl)c1F` (racemic) [Example 115, rac-(2S,3R,4S,5R)-N-(4-carbamoyl-2-methoxyphenyl)-4-(3-chloro-2-fluorophenyl)-6′-methoxy-2-neopentyl-2′-oxo-1′,2′-dihydrospiro[pyrrolidine-3,3′-pyrrolo[3,2-c]pyridine]-5-carboxamide] came in with a 50% inhibitory concentration (IC50) of 127 nM.

For the compound `COc1cc(OCCOC(C)=O)ccc1NC(=O)[C@@H]1N[C@@H](CC(C)(C)C)[C@@]2(C(=O)Nc3cc(Cl)ncc32)[C@H]1c1cccc(Cl)c1F` (racemic) [Example 116, rac-2-(4-((2S,3R,4S,5R)-6′-chloro-4-(3-chloro-2-fluorophenyl)-2-neopentyl-2′-oxo-1′,2′-dihydrospiro[pyrrolidine-3,3′-pyrrolo[3,2-c]pyridine]-5-ylcarboxamido)-3-methoxyphenoxy)ethyl acetate], the IC50 was determined as 12 nM.
